Reference: patent US20120101253A1, “STRUCTURED POLYCYCLIC PEPTIDE” (priority 2009, published 2012)
Read-outs that look alike come from different tables or passages of the source. Residues, ends and D or L forms follow the SMILES beside them.

How the values were obtained:
[1] = biological target: T1, human plasma kallikrein (Homo sapiens, UniProt P03952); details: Heinis et al., 2009; cited from earlier work
T1 construct: purchased Innovative Research, Southfiled, USA

[2] = biological target: T1, human plasma kallikrein; assay: Inhibition of human plasma kallikrein, fluorogenic substrate Z-Phe-Arg-AMC; assay type: biochemical; details: for inhibition of human plasma kallikrein, fold weaker than parental inhibitor PK15: tricyclic peptides
Experimental: Fluorescence intensities were recorded for 1 hour with excitation and emission wavelengths of 355 nm and 460 nm on a fluorescence plate reader (Molecular Devices, Sunnyvale, USA).

[3] = biological target: MDM2 (res 2-125) (Homo sapiens, UniProt Q00987); assay: Fluorescence anisotropy titration, binding to MDM2
Sequence of MDM2 (res 2-125) (Q00987 2-125): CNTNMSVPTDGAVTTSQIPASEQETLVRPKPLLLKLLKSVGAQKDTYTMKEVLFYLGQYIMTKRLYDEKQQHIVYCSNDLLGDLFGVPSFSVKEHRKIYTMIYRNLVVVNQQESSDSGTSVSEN
Experimental: Titration experiments were run on a Horiba Jobin Yvon fluorimeter equipped with the Hamilton Microlab titrator controlled by laboratory software. […] The slit widths for excitation and emission were 5 nm and 15 nm and the integration time 10 s was used for each measurement. The intrinsic fluorescence of tryptophan in peptides 10, 48 was used to measure their binding affinity for MDM2 (res 2-125). The experiments were performed at 23C° in PBS, 5 mM DTT. Usually 250 μl of MDM2 (150 μM) was titrated into 1.2 ml of peptide (1 uM). Titration data were analyzed with a standard 1:1 binding model by using the quadratic solution to the equilibrium Kd=[A][B]/[AB]. […] The fitting equation contained an extra term to account for linear drift.

[4] = biological target: T2, leucyl aminopeptidase from Aeromonas proteolytica (Vibrio proteolyticus, UniProt Q01693); assay: Aminopeptidase treatment of peptides (MALDI-TOF); assay type: in vitro ADME
T2 construct: purchased Sigma A8200
T2 sequence (Q01693 107-405 limits assumed): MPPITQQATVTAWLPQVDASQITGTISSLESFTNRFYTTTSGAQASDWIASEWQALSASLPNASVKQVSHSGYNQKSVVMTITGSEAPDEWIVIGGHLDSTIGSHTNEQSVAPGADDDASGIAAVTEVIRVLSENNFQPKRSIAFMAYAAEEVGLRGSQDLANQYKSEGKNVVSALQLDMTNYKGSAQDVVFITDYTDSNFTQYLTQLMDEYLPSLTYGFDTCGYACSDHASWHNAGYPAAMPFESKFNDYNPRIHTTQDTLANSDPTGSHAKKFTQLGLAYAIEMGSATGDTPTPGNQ
Experimental: Peptide 7 before (300 μM) and after (75 μM) MTGase treatment in reaction buffer was incubated with different amounts of leucyl aminopeptidase from Aeromonas proteolytica (EC 3.4.11.10; Sigma, A8200) (3 to 352 ng, corresponding to concentrations of about 50 nM to 6 μM) in a final volume of 2 μl for 30 min at RT. The mass of the peptides was determined by MALDI-TOF mass spectrometry.

[5] = biological target: T3, MDM2 peptide (res 2-125) (Homo sapiens, UniProt Q00987); assay: Competition ELISA of PEP48 phage binding to MDM2; details: TBMB conjugate
T3 construct: biotinylated MDM2 peptide (res 2-125) was immobilized on a streptavidin-coated plate
T3 sequence (Q00987 2-125): as the sequence (Q00987 2-125) above
Excerpt: Phage was detected using an anti-M13-HRP monoclonal antibody (1:5000, Amersham).

[6] = IC50 Before MTGase cyclisation (bicyclic), bicyclic TBMB conjugates
[7] = IC50 After MTGase cyclisation (tricyclic), tricyclic peptides after MTGase treatment

T1 sequence (P03952 391-638 limits assumed): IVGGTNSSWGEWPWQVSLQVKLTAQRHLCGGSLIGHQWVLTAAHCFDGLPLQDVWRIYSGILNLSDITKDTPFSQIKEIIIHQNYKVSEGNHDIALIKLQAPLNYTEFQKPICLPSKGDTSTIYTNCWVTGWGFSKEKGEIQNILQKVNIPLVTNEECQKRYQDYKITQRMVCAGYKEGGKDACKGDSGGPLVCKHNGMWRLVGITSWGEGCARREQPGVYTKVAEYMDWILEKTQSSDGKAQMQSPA
T1 sequence (P03952 20-390 partner limits assumed): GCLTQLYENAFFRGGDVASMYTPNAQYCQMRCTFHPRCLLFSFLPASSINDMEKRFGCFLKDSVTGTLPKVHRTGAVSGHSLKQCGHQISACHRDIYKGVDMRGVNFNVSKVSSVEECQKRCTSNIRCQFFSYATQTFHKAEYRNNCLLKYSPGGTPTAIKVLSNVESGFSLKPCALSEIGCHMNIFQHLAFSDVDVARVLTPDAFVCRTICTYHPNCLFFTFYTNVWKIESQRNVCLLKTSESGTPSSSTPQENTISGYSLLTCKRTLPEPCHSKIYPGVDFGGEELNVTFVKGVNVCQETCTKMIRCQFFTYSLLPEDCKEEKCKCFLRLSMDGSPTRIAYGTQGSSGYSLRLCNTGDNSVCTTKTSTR

Compound	IC50 [2, 6] [nM]	affinity of synthetic peptide for MDM2 [3]	IC50 [2, 7] [nM]	inhibition of human plasma kallikrein, fold weaker than parental inhibitor PK15 [2]	further results
[H][C@@]12CCCN1C(=O)[C@]1([H])CSCc3cc(cc(c3)CSC[C@@H](C(=O)NCC(N)=O)NC(=O)[C@H](CC(C)C)NC(=O)[C@H](C)NC(=O)[C@H](CCC(=O)O)NC(=O)[C@H](CC(=O)O)NC(=O)[C@H](C)NC2=O)CSC[C@H](NC(=O)[C@H](C)N)C(=O)N[C@@H](CO)C(=O)N[C@@H](CC(=O)O)C(=O)N[C@@H](CCCNC(=N)N)C(=O)N[C@@H](Cc2ccccc2)C(=O)N[C@@H](CCCNC(=N)N)C(=O)N[C@@H](CC(N)=O)C(=O)N1 [PK15, reference compound] (HELM PEPTIDE1{A.C.S.D.R.F.R.N.C.P.A.D.E.A.L.C.G.[am]}|CHEM1{[c1c(C[*:1])cc(C[*:3])cc1C[*:2]]}$PEPTIDE1,CHEM1,2:R3-1:R1|PEPTIDE1,CHEM1,9:R3-1:R2|PEPTIDE1,CHEM1,16:R3-1:R3$$$V2.0)	3				factor of activity reduction on C-terminal conjugation to a protein [1]: around 10
CC(C)C[C@@H]1NC(=O)[C@H](CCC(=O)O)NC(=O)[C@@H](NC(=O)[C@@H](N)CO)CSCc2cc3cc(c2)CSC[C@H](NC(=O)[C@H](CCCCN)NC(=O)[C@@H]2CCCN2C(=O)[C@H](CC(N)=O)NC(=O)[C@H](Cc2c[nH]c4ccccc24)NC1=O)C(=O)N[C@@H](CCCNC(=N)N)C(=O)N[C@@H](CC(C)C)C(=O)N[C@@H](CO)C(=O)N1CCC[C@H]1C(=O)N[C@@H](Cc1ccccc1)C(=O)N[C@@H](CCC(=O)O)C(=O)N[C@H](C(=O)N[C@@H](CCCCN)C(=O)NCC(=O)O)CSC3 [PEP10] (HELM PEPTIDE1{S.C.E.L.W.N.P.K.C.R.L.S.P.F.E.C.K.G}|CHEM1{[c1c(C[*:1])cc(C[*:3])cc1C[*:2]]}$PEPTIDE1,CHEM1,2:R3-1:R1|PEPTIDE1,CHEM1,9:R3-1:R2|PEPTIDE1,CHEM1,16:R3-1:R3$$$V2.0; bridges inferred)		micromolar or better			
CC(C)C[C@@H]1NC(=O)[C@H](C)NC(=O)[C@H](CCC(=O)O)NC(=O)[C@H](CC(=O)O)NC(=O)[C@H](C)NC(=O)[C@@H]2CCCN2C(=O)[C@@H]2CSCc3cc(cc(c3)CSC[C@@H](C(=O)N[C@@H](C)C(=O)N[C@@H](CCCCN)C(=O)N[C@@H](CO)C(N)=O)NC1=O)CSC[C@H](NC(=O)[C@H](C)NC(=O)[C@H](CCC(N)=O)NC(=O)[C@H](CC(C)C)NC(=O)[C@H](C)NC(=O)[C@@H](N)Cc1c[nH]c3ccccc13)C(=O)N[C@@H](CO)C(=O)N[C@@H](CC(=O)O)C(=O)N[C@@H](CCCNC(=N)N)C(=O)N[C@@H](Cc1ccccc1)C(=O)N[C@@H](CCCNC(=N)N)C(=O)N[C@@H](CC(N)=O)C(=O)N2 [peptide 8] (HELM PEPTIDE1{W.A.L.Q.A.C.S.D.R.F.R.N.C.P.A.D.E.A.L.C.A.K.S.[am]}|CHEM1{[c1c(C[*:1])cc(C[*:3])cc1C[*:2]]}$PEPTIDE1,CHEM1,6:R3-1:R1|PEPTIDE1,CHEM1,13:R3-1:R2|PEPTIDE1,CHEM1,20:R3-1:R3$$$V2.0)	185		196	about 70 fold	
CC(C)C[C@H](NC(=O)[C@H](C)N)C(=O)N[C@@H](CCC(N)=O)C(=O)N[C@@H](C)C(=O)N[C@H]1CSCc2cc3cc(c2)CSC[C@H](NC(=O)[C@H](CC(N)=O)NC(=O)[C@H](CCCNC(=N)N)NC(=O)[C@H](Cc2ccccc2)NC(=O)[C@H](CCCNC(=N)N)NC(=O)[C@H](CC(=O)O)NC(=O)[C@H](CO)NC1=O)C(=O)N1CCC[C@H]1C(=O)N[C@@H](C)C(=O)N[C@@H](CC(=O)O)C(=O)N[C@@H](CCC(=O)O)C(=O)N[C@@H](C)C(=O)N[C@@H](CC(C)C)C(=O)N[C@H](C(=O)N[C@@H](C)C(=O)N[C@@H](CCCCN)C(=O)N[C@@H](CO)C(N)=O)CSC3 [peptide 7] (HELM PEPTIDE1{A.L.Q.A.C.S.D.R.F.R.N.C.P.A.D.E.A.L.C.A.K.S.[am]}|CHEM1{[c1c(C[*:1])cc(C[*:3])cc1C[*:2]]}$PEPTIDE1,CHEM1,5:R3-1:R1|PEPTIDE1,CHEM1,12:R3-1:R2|PEPTIDE1,CHEM1,19:R3-1:R3$$$V2.0)	259		200	about 70 fold	amount of exopeptidase at which exocyclic amino acids (Ala-Leu-Gln-Ala) were degraded ([4]; bicyclic peptide, 30 min at RT): ≥ 70 ng; exopeptidase needed to degrade the Gln-Ala dipeptide ([4]; tricyclic peptide, compared with bicyclic): higher exopeptidease concentrations were required
H-SCVRFGWTCDNSWHGCKG-OH (cysteine pairing not given here) [PEP48, bicyclic peptide selected against MDM2]		micromolar or better			binding site on MDM2 by competition ELISA [5]: bind to the same site as a linear peptide previously shown to block the p53-MDM2 interaction; Kd ([3]; entire bicyclic peptide, read-out: binding affinity (Kd) for MDM2): 500 to 800 nM; Kd ([3]; measured λex=280 nm, read-out: Kd, peptide + MDM2): 760 nM; Kd ([3]; measured λex=295 nm, read-out: Kd, peptide + MDM2): 567 nM
